Experimental data reported in ChEMBL document CHEMBL1201862, “PubChem BioAssay data set” (2004).
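Compound exposure: 48 hours, 5 concentrations, 96-well plates. Abbreviation: GI50, concentration required for 50% inhibition of growth.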 The source made the active and inactive calls. Cut-off read from the data, not from the text of the source: active = GI50 up to about 1.1 µM and inactive = higher.

Columns and labels:
Test in all cases: NCI tumour cell line growth inhibition, 48 h
A498 = tested on: A498
U-251 = tested on: U-251
HCT-116 = tested on: HCT-116
A549 = tested on: A549
Malme-3M = tested on: Malme-3M
HOP-62 = tested on: HOP-62
NCI-H522 = tested on: NCI-H522
KM12 = tested on: KM12
COLO 205 = tested on: COLO 205
NCI/ADR-RES = tested on: NCI/ADR-RES
DU-145 = tested on: DU-145
HCC 2998 = tested on: HCC 2998
HOP-92 = tested on: HOP-92
PC-3 = tested on: PC-3
OVCAR-3 = tested on: OVCAR-3
IGROV-1 = tested on: IGROV-1
ACHN = tested on: ACHN
SK-MEL-2 = tested on: SK-MEL-2
SK-MEL-28 = tested on: SK-MEL-28
TK-10 = tested on: TK-10
RPMI-8226 = tested on: RPMI-8226
SF-539 = tested on: SF-539
SW-620 = tested on: SW-620
CCRF-CEM = tested on: CCRF-CEM
LOX IMVI = tested on: LOX IMVI
SR = tested on: SR
NCI-H460 = tested on: NCI-H460
K562 = tested on: K562
OVCAR-8 = tested on: OVCAR-8
NCI-H226 = tested on: NCI-H226
SK-OV-3 = tested on: SK-OV-3
MOLT-4 = tested on: MOLT-4
UACC-62 = tested on: UACC-62
BT-549 = tested on: BT-549
OVCAR-5 = tested on: OVCAR-5
786-0 = tested on: 786-0
SK-MEL-5 = tested on: SK-MEL-5
M14 = tested on: M14
T47D = tested on: T47D
MDA-N = tested on: MDA-N
MDA-MB-435 = tested on: MDA-MB-435
SN12C = tested on: SN12C
RXF 393 = tested on: RXF 393
NCI-H23 = tested on: NCI-H23
OVCAR-4 = tested on: OVCAR-4
SF-295 = tested on: SF-295
MCF7 = tested on: MCF7
EKVX = tested on: EKVX
SNB-19 = tested on: SNB-19
Hs-578T = tested on: Hs-578T
MDA-MB-231 = tested on: MDA-MB-231
HL-60 = tested on: HL-60
UO-31 = tested on: UO-31
HCT-15 = tested on: HCT-15
HT-29 = tested on: HT-29
SNB-75 = tested on: SNB-75
SF-268 = tested on: SF-268
CAKI-1 = tested on: CAKI-1
UACC-257 = tested on: UACC-257

For `O=C(NNc1ccccc1)c1ccc(Cl)c(Cl)c1`, the GI50 (A498) was 5.2 µM (inactive), the GI50 (U-251) was 18.2 µM (inactive) and the GI50 (HCT-116) was 14 µM (inactive). For the same compound, the GI50 (A549) was 6.59 µM (inactive), the GI50 (Malme-3M) was 18.6 µM (inactive) and the GI50 (HOP-62) was 54.6 µM (inactive). For the same compound, the GI50 (NCI-H522) was 0.574 µM (active), the GI50 (KM12) was 0.114 µM (active) and the GI50 (COLO 205) was 0.169 µM (active). For the same compound, the GI50 (NCI/ADR-RES) was 5.25 µM (inactive), the GI50 (DU-145) was 26.9 µM (inactive) and the GI50 (HCC 2998) was 2.31 µM (inactive). The GI50 (HOP-92) was > 78.9 µM (inactive), the GI50 (PC-3) was 25.2 µM (inactive) and the GI50 (OVCAR-3) was 4.7 µM (inactive). For the same compound, the GI50 (IGROV-1) was 13.2 µM (inactive), the GI50 (ACHN) was 11.3 µM (inactive) and the GI50 (SK-MEL-2) was 0.875 µM (active). For the same compound, the GI50 (SK-MEL-28) was > 100 µM (inactive), the GI50 (TK-10) was 20.7 µM (inactive) and the GI50 (RPMI-8226) was 0.603 µM (active). For the same compound, the GI50 (SF-539) was 0.0718 µM (active), the GI50 (SW-620) was 0.108 µM (active) and the GI50 (CCRF-CEM) was 1.12 µM (inactive). For the same compound, the GI50 (LOX IMVI) was 0.0438 µM (active), the GI50 (SR) was 20.3 µM (inactive) and the GI50 (NCI-H460) was 0.219 µM (active). For the same compound, the GI50 (K562) was 0.0281 µM (active), the GI50 (OVCAR-8) was 21.2 µM (inactive) and the GI50 (NCI-H226) was 29.9 µM (inactive). The GI50 (SK-OV-3) was 21.1 µM (inactive), the GI50 (MOLT-4) was 21.5 µM (inactive) and the GI50 (UACC-62) was 0.0667 µM (active). The GI50 (BT-549) was 6.81 µM (inactive), the GI50 (OVCAR-5) was 57 µM (inactive) and the GI50 (786-0) was 41 µM (inactive). The GI50 (SK-MEL-5) was 1.3 µM (inactive), the GI50 (M14) was 0.324 µM (active) and the GI50 (T47D) was 0.918 µM (active). The GI50 (MDA-N) was 0.122 µM (active), the GI50 (MDA-MB-435) was 0.206 µM (active) and the GI50 (SN12C) was 27.9 µM (inactive). The GI50 (RXF 393) was 19.3 µM (inactive), the GI50 (NCI-H23) was 34.4 µM (inactive) and the GI50 (OVCAR-4) was 16.2 µM (inactive). The GI50 (SF-295) was 0.0676 µM (active), the GI50 (MCF7) was 0.585 µM (active) and the GI50 (EKVX) was 4.39 µM (inactive). For the same compound, the GI50 (SNB-19) was 25.8 µM (inactive), the GI50 (Hs-578T) was 28.5 µM (inactive) and the GI50 (MDA-MB-231) was 35.6 µM (inactive). For the same compound, the GI50 (HL-60) was 0.0569 µM (active), the GI50 (UO-31) was 2.44 µM (inactive) and the GI50 (HCT-15) was 15.5 µM. The GI50 (HT-29) was 15.7 µM (inactive), the GI50 (SNB-75) was 25.8 µM (inactive) and the GI50 (SF-268) was 1.45 µM (inactive). For the same compound, the GI50 (CAKI-1) was 0.259 µM (active).
For `COC(=O)c1cc2c(cc1CC(Cc1ccc3c(c1)CCCC3)C(=O)OC)CCCC2` (stereo unspecified), the GI50 (A498) was > 100 µM (inactive), the GI50 (U-251) was 41.7 µM (inactive) and the GI50 (HCT-116) was 36 µM (inactive). For the same compound, the GI50 (A549) was 37.7 µM (inactive), the GI50 (Malme-3M) was 33.6 µM (inactive) and the GI50 (HOP-62) was > 100 µM (inactive). For the same compound, the GI50 (NCI-H522) was 54.5 µM (inactive), the GI50 (KM12) was 50.5 µM (inactive) and the GI50 (COLO 205) was 33.2 µM (inactive). For the same compound, the GI50 (NCI/ADR-RES) was 41.3 µM (inactive), the GI50 (DU-145) was > 100 µM (inactive) and the GI50 (HCC 2998) was 20.8 µM (inactive). For the same compound, the GI50 (UACC-257) was 16.4 µM (inactive), the GI50 (HOP-92) was 44.9 µM (inactive) and the GI50 (PC-3) was 21.7 µM (inactive). For the same compound, the GI50 (OVCAR-3) was 44.6 µM (inactive), the GI50 (IGROV-1) was > 100 µM (inactive) and the GI50 (ACHN) was 49.9 µM (inactive). For the same compound, the GI50 (SK-MEL-2) was > 100 µM (inactive), the GI50 (SK-MEL-28) was 86.1 µM (inactive) and the GI50 (TK-10) was 95.3 µM (inactive). For the same compound, the GI50 (RPMI-8226) was 20 µM (inactive), the GI50 (SF-539) was 32.7 µM (inactive) and the GI50 (SW-620) was 80.9 µM (inactive). For the same compound, the GI50 (CCRF-CEM) was 29.7 µM (inactive), the GI50 (LOX IMVI) was 28.2 µM (inactive) and the GI50 (SR) was 97.7 µM (inactive). The GI50 (NCI-H460) was 34 µM (inactive), the GI50 (K562) was 40.1 µM (inactive) and the GI50 (OVCAR-8) was 84.7 µM (inactive). For the same compound, the GI50 (NCI-H226) was 59.3 µM (inactive), the GI50 (SK-OV-3) was 49.5 µM (inactive) and the GI50 (MOLT-4) was 42.1 µM (inactive). For the same compound, the GI50 (UACC-62) was > 100 µM (inactive), the GI50 (BT-549) was > 100 µM (inactive) and the GI50 (OVCAR-5) was 68.4 µM (inactive). For the same compound, the GI50 (786-0) was 45.4 µM (inactive), the GI50 (SK-MEL-5) was 24.5 µM (inactive) and the GI50 (M14) was 88.3 µM (inactive). The GI50 (T47D) was 39.8 µM (inactive), the GI50 (MDA-N) was 65.3 µM (inactive) and the GI50 (MDA-MB-435) was 40.6 µM (inactive). For the same compound, the GI50 (SN12C) was > 100 µM (inactive), the GI50 (RXF 393) was 25.8 µM (inactive) and the GI50 (NCI-H23) was 54.1 µM (inactive). The GI50 (OVCAR-4) was 29.9 µM (inactive), the GI50 (SF-295) was 76 µM (inactive) and the GI50 (MCF7) was 40.1 µM (inactive). The GI50 (SNB-19) was > 100 µM (inactive), the GI50 (Hs-578T) was 93.3 µM (inactive) and the GI50 (MDA-MB-231) was 68.4 µM (inactive). For the same compound, the GI50 (HL-60) was 7.45 µM (inactive), the GI50 (UO-31) was > 100 µM (inactive) and the GI50 (HCT-15) was 35.7 µM. The GI50 (HT-29) was 33.7 µM (inactive), the GI50 (SNB-75) was 64.4 µM (inactive) and the GI50 (SF-268) was 29 µM (inactive). For the same compound, the GI50 (CAKI-1) was > 100 µM (inactive).
